From patent US11053204B2, “Pyrimidinyloxy benzene derivatives as herbicides” (FMC Corporation, priority 2015, dated 2021)

Experiments:
Type in all cases: in vivo
[1] = test system: pigweed, palmer (palmer pigweed, Amaranthus palmeri); assay: Test C preemergence, plant response rating
[2] = test system: barnyardgrass (Echinochloa crus-galli); assay: Test C preemergence, plant response rating; details: Preemergence
[3] = test system: nightshade (eastern black nightshade, Solanum ptycanthum); assay: Test C preemergence, plant response rating
kochia (Kochia scoparia) = assay: Test C preemergence, plant response rating
[4] = test system: johnsongrass (Sorghum halepense); assay: Test C postemergence, plant response rating; details: for Johnsongrass plant response rating: scale 0 to 100 (0 no effect, 100 complete control)
Procedure, shortened: (§1)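 Preemergence: seeds sown in loam–sand blend or silt loam and sprayed with test chemicals in a non-phytotoxic surfactant-containing solvent. Postemergence: potted plants at 2–18 cm (1–4-leaf stage) sprayed with the same formulation. After 13–15 d in greenhouse, visual rating versus controls on 0 (no effect) to 100 (complete control) scale.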

[5] = test system: windgrass (Apera spica-venti); assay: Test C postemergence, plant response rating
Procedure, shortened: as §1

[6] = test system: buckwheat, wild (wild buckwheat, Polygonum convolvulus); assay: Test C postemergence, plant response rating; details: for Buckwheat, Wild plant response rating: scale 0 to 100 (0 no effect, 100 complete control)
Procedure, shortened: as §1

[7] = test system: wild poinsettia (Euphorbia heterophylla); assay: Test C postemergence, plant response rating; details: for Poinsettia, Wild plant response rating: scale 0 to 100 (0 no effect, 100 complete control)
Procedure, shortened: as §1

[8] = test system: speedwell (bird's-eye speedwell, Veronica persica); assay: Test C postemergence, plant response rating; details: for Speedwell plant response rating: scale 0 to 100 (0 no effect, 100 complete control)
Procedure, shortened: as §1

[9] = test system: surinam grass (Brachiaria decumbens); assay: Test C postemergence, plant response rating
Procedure, shortened: as §1

[10] = test system: field violet (Viola arvensis); assay: Test C postemergence, plant response rating; details: for Field Violet plant response rating: scale 0 to 100 (0 no effect, 100 complete control)
Procedure, shortened: as §1

[11] = test system: field poppy (Papaver rhoeas); assay: Test C postemergence, plant response rating; details: for Field Poppy plant response rating: scale 0 to 100 (0 no effect, 100 complete control)
Procedure, shortened: as §1

[12] = test system: nightshade (eastern black nightshade, Solanum ptycanthum); assay: Test C postemergence, plant response rating; details: for Nightshade plant response rating: scale 0 to 100 (0 no effect, 100 complete control)
Procedure, shortened: as §1

[13] = test system: Canada thistle (Cirsium arvense); assay: Test C postemergence, plant response rating; details: for Canada Thistle plant response rating: scale 0 to 100 (0 no effect, 100 complete control)
Procedure, shortened: as §1

[14] = test system: pigweed, palmer (palmer pigweed, Amaranthus palmeri); assay: Test C postemergence, plant response rating; details: for Pigweed, Palmer plant response rating: scale 0 to 100 (0 no effect, 100 complete control)
Procedure, shortened: as §1

[15] = test system: geranium, cutleaf (cutleaf geranium, Geranium dissectum); assay: Test C postemergence, plant response rating; details: for Geranium, Cutleaf plant response rating: scale 0 to 100 (0 no effect, 100 complete control)
Procedure, shortened: as §1

[16] = test system: galium (catchweed bedstraw, Galium aparine); assay: Test C preemergence, plant response rating
[17] = test system: johnsongrass (Sorghum halepense); assay: Test C preemergence, plant response rating
[18] = test system: windgrass (Apera spica-venti); assay: Test C preemergence, plant response rating
[19] = 125 g ai/ha, scale 0 to 100 (0 no effect, 100 complete control)

CCCCC(=O)c1c(Br)cccc1Oc1ncc(Cl)cn1 [Compound 79]
75: Plant response rating, Pigweed, Palmer ([1]; 16 g ai/ha, scale 0 to 100) | Plant response rating, Barnyardgrass ([2]; 62 g ai/ha, scale of 0 to 100) | Plant response rating, Buckwheat, Wild ([6]; 16 g ai/ha, scale of 0 to 100) | Plant response rating, Poinsettia, Wild ([7]; 31 g ai/ha, scale 0 to 100) | Plant response rating, Field Violet ([10]; 31 g ai/ha, scale 0 to 100)
100: Plant response rating, Kochia (kochia (Kochia scoparia); 125 g ai/ha, scale of 0 to 100) | Speedwell plant response rating ([8]; 125 g ai/ha) | Field Poppy plant response rating ([11]; 62 g ai/ha) | Field Poppy plant response rating ([11]; 125 g ai/ha) | Nightshade plant response rating ([12]; 125 g ai/ha) | Canada Thistle plant response rating ([13]; 125 g ai/ha) | Plant response rating, Windgrass ([18]; 62 g ai/ha, scale 0 to 100) | Plant response rating, Windgrass ([18]; 125 g ai/ha, scale of 0 to 100)
20: Plant response rating, Windgrass ([5]; 16 g ai/ha, scale of 0 to 100)
25: Plant response rating, Surinam Grass ([9]; 16 g ai/ha, scale of 0 to 100) | Plant response rating, Surinam Grass ([9]; 31 g ai/ha, scale 0 to 100)
55: Plant response rating, Canada Thistle ([13]; 16 g ai/ha, scale of 0 to 100) | Geranium, Cutleaf plant response rating ([15]; 62 g ai/ha)
90: Plant response rating, Pigweed, Palmer ([1]; 62 g ai/ha, scale 0 to 100) | Plant response rating, Pigweed, Palmer ([1]; 125 g ai/ha, scale of 0 to 100) | Plant response rating, Kochia (kochia (Kochia scoparia); 31 g ai/ha, scale 0 to 100) | Plant response rating, Kochia (kochia (Kochia scoparia); 62 g ai/ha, scale 0 to 100) | Buckwheat, Wild plant response rating ([6]; 125 g ai/ha) | Plant response rating, Speedwell ([8]; 31 g ai/ha, scale 0 to 100) | Field Violet plant response rating ([10]; 125 g ai/ha) | Plant response rating, Nightshade ([12]; 16 g ai/ha, scale of 0 to 100)
65: Plant response rating, Nightshade ([3]; 31 g ai/ha, scale 0 to 100) | Plant response rating, Johnsongrass ([4]; 31 g ai/ha, scale 0 to 100) | Plant response rating, Canada Thistle ([13]; 31 g ai/ha, scale 0 to 100) | Geranium, Cutleaf plant response rating ([15]; 125 g ai/ha)
95: Plant response rating, Barnyardgrass ([2]; 125 g ai/ha, scale of 0 to 100) | Plant response rating, Nightshade ([3]; 125 g ai/ha, scale of 0 to 100) | Plant response rating, Nightshade ([12]; 31 g ai/ha, scale 0 to 100) | Nightshade plant response rating ([12]; 62 g ai/ha)
50: Plant response rating, Geranium, Cutleaf ([15]; 31 g ai/ha, scale 0 to 100) | Plant response rating, Johnsongrass ([17]; 62 g ai/ha, scale 0 to 100)
40: Plant response rating, Johnsongrass ([4]; 16 g ai/ha, scale of 0 to 100)
85: Plant response rating, Pigweed, Palmer ([1]; 31 g ai/ha, scale 0 to 100) | Johnsongrass plant response rating ([4]; 125 g ai/ha) | Buckwheat, Wild plant response rating ([6]; 62 g ai/ha) | Poinsettia, Wild plant response rating ([7]; 125 g ai/ha) | Plant response rating, Speedwell ([8]; 16 g ai/ha, scale of 0 to 100) | Field Violet plant response rating ([10]; 62 g ai/ha) | Plant response rating, Field Poppy ([11]; 16 g ai/ha, scale of 0 to 100) | Pigweed, Palmer plant response rating ([14]; 125 g ai/ha)
35: Plant response rating, Windgrass ([5]; 31 g ai/ha, scale 0 to 100) | Surinam Grass plant response rating [9, 19]
5: Plant response rating, Barnyardgrass ([2]; 16 g ai/ha, scale 0 to 100) | Plant response rating, Kochia (kochia (Kochia scoparia); 16 g ai/ha, scale 0 to 100) | Plant response rating, Galium ([16]; 125 g ai/ha, scale of 0 to 100) | Plant response rating, Johnsongrass ([17]; 31 g ai/ha, scale 0 to 100)
0: Plant response rating, Galium ([16]; 16 g ai/ha, scale 0 to 100) | Plant response rating, Galium ([16]; 31 g ai/ha, scale 0 to 100) | Plant response rating, Johnsongrass ([17]; 16 g ai/ha, scale 0 to 100)
45: Plant response rating, Geranium, Cutleaf ([15]; 16 g ai/ha, scale of 0 to 100)
98: Speedwell plant response rating ([8]; 62 g ai/ha) | Plant response rating, Field Poppy ([11]; 31 g ai/ha, scale 0 to 100)
80: Plant response rating, Nightshade ([3]; 62 g ai/ha, scale 0 to 100) | Plant response rating, Buckwheat, Wild ([6]; 31 g ai/ha, scale 0 to 100) | Poinsettia, Wild plant response rating ([7]; 62 g ai/ha) | Plant response rating, Pigweed, Palmer ([14]; 31 g ai/ha, scale 0 to 100) | Plant response rating, Windgrass ([18]; 31 g ai/ha, scale 0 to 100)
60: Plant response rating, Barnyardgrass ([2]; 31 g ai/ha, scale 0 to 100) | Johnsongrass plant response rating ([4]; 62 g ai/ha) | Plant response rating, Pigweed, Palmer ([14]; 16 g ai/ha, scale of 0 to 100) | Plant response rating, Windgrass ([18]; 16 g ai/ha, scale 0 to 100)
70: Plant response rating, Field Violet ([10]; 16 g ai/ha, scale of 0 to 100) | Canada Thistle plant response rating ([13]; 62 g ai/ha) | Pigweed, Palmer plant response rating ([14]; 62 g ai/ha) | Plant response rating, Galium ([16]; 62 g ai/ha, scale of 0 to 100) | Plant response rating, Johnsongrass ([17]; 125 g ai/ha, scale of 0 to 100)
30: Plant response rating, Nightshade ([3]; 16 g ai/ha, scale 0 to 100) | Windgrass plant response rating [5, 19] | Plant response rating, Poinsettia, Wild ([7]; 16 g ai/ha, scale of 0 to 100)
